Experiments:
[1] = tested on: Human immunodeficiency virus 1; experiment: Effective concentration required for in vitro inhibitory activity against HIV-1; IA is Inactive; assay type: functional, organism-based
[2] = tested on: Human immunodeficiency virus 1; experiment: Effective concentration required for in vitro inhibitory activity against HIV-1; assay type: functional, organism-based

Row | EC50 [1] | EC50 [2] [nM] | Structure (SMILES)
1 | Not Active |  | CCCc1cc(=O)oc2c3c(c4c(c12)OC(C)(C)C=C4)O[C@@H](C)[C@H](C)[C@H]3O [(-)-CALANOLIDE A]
2 | Not Active |  | CCCc1cc(=O)oc2c3c(c4c(c12)OC(C)(C)C=C4)O[C@H](C)[C@@H](C)[C@H]3O [(+)-CALANOLIDE B]
3 |  | 300 | CCCc1cc(=O)oc2c3c(c4c(c12)OC(C)(C)C=C4)O[C@@H](C)[C@H](C)[C@@H]3O [COSTATOLIDE]
4 |  | 200 | CCCc1cc(=O)oc2c3c(c4c(c12)OC(C)(C)C=C4)O[C@H](C)[C@@H](C)[C@@H]3O [CALANOLIDE A]

Source: ChEMBL document CHEMBL1128885, “Resolution and comparative anti-HIV evaluation of the enantiomers of calanolides A and B” (Bioorg Med Chem Lett, 1995)
